Reference: US7662988B2, “Ester compound and its use” (Sumitomo Chemical Company, Limited, priority 2006, dated 2010)

Assays:
[1] = test system: Adult houseflies; test: Housefly KT90 test, 0.00625% oil solution spray in cubic chamber; type: in vivo; settings: 0.7 ml of 0.00625% oil solution sprayed in 70 cm cubic chamber, counted up to 10 minutes after spraying
Procedure: A solution of 0.00625 part of the present compound (A) in 10 parts of dichloromethane was mixed with 89.99375 parts of deodorized kerosene to obtain a 0.00625% oil solution.
Adult houseflies (5 males and 5 females) were left in a cubic chamber (70 cm at each side). Into the chamber, 0.7 ml of 0.00625% oil solution of the present compound (A) prepared above was sprayed into the chamber with a spray gun at a pressure of 8.8×10^4 Pa from a small window on the side of the chamber. Then, up to 10 minutes after spraying, the number of the knocked-down insects was counted with time (repeated twice). The time required for knocking down 90% of the tested insects (KT90) was calculated from the results.
The same tests were carried out except for using the comparative compound 1 and 4-methoxymethyl-2,3,5,6-tetrafluorobenzyl (1R)-trans-3-(2-cyano-1-propenyl)-2,2-dimethylcyclopropanecarboxylate represented by the formula:
[drawing 8] (The compound described in JP 2004-2363 A; hereinafter, referred to as the comparative compound 2.).

[2] = test system: Adult houseflies; test: Housefly knock-down test, 0.025% oil solution spray in cubic chamber; type: in vivo; settings: 0.7 ml of 0.025% oil solution sprayed in 70 cm cubic chamber, 2 minutes after spraying
Procedure: A solution of 0.025 part of the present compound (A) in 10 parts of dichloromethane was mixed with 89.975 parts of deodorized kerosene to obtain a 0.025% oil solution.
Adult houseflies (5 males and 5 females) were left in a cubic chamber (70 cm at each side). Into the chamber, 0.7 ml of 0.025% oil solution of the present compound (A) prepared above was sprayed with a spray gun at a pressure of 8.8×10^4 Pa from a small window on the side of the chamber. Two minutes after spraying, the number of the knocked-down insects was counted (repeated twice).
The same test was carried out except that 4-propargyl-2,3,5,6-tetrafluorobenzyl (1R)-trans-3-(2-methyl-1-propenyl)-2,2-dimethylcyclopropanecarboxylate represented by the formula:
[drawing 7] (The compound described as compound 2 in TABLE 1 of EP 0196156 A1; hereinafter, referred to as the comparative compound 1) was used instead of the present compound (A).
Knock-down ratios, i.e., ratios of the number of knocked-down insects 2 minutes after the spraying to the number of tested insects, are shown in Table 1.

Row | SMILES | KT90 (minutes), time required for knocking down 90% of the tested insects [1] | Knock-down ratio (%) [2] [%]
1 | C#CCc1c(F)c(F)c(COC(=O)[C@@H]2[C@@H](C=C(C)C)C2(C)C)c(F)c1F [Comparative compound 1, 4-propargyl-2,3,5,6-tetrafluorobenzyl (1R)-trans-3-(2-methyl-1-propenyl)-2,2-dimethylcyclopropanecarboxylate] | Not less than 10 minutes | 0
2 | COCc1c(F)c(F)c(COC(=O)[C@@H]2[C@@H](C=C(C)C#N)C2(C)C)c(F)c1F [Comparative compound 2, 4-methoxymethyl-2,3,5,6-tetrafluorobenzyl (1R)-trans-3-(2-cyano-1-propenyl)-2,2-dimethylcyclopropanecarboxylate] | 4.3 min | 
3 | C#CCc1c(F)c(F)c(COC(=O)[C@@H]2[C@@H](C=C(C)C#N)C2(C)C)c(F)c1F [Present compound (A), 4-propargyl-2,3,5,6-tetrafluorobenzyl (1R)-trans-3-(2-cyano-1-propenyl)-2,2-dimethylcyclopropanecarboxylate] | 2.0 min | 100
